# Results from US20090111801A1, “SUBSTITUTED PYRAZINONE DERIVATIVES FOR USE AS A MEDICINE” (Janssen Pharmaceutica N.V., priority 2006, published 2009).
# Counter-ions that a name gives are not always drawn.
# Legend:
# hα2A receptor = target: T1, hα2A receptor (Homo sapiens, UniProt P08913); test: Radioligand binding experiment for α2A-adrenoceptor ([3H]raulwolscine, CHO cell membranes); settings: [3H]raulwolscine binding, read-out: h-α2A pIC50 (converted)
# T1 construct: expressed in transfected cells; host or cells: CHO cells, stably transfected; membrane preparation
# T1 sequence (P08913 1-465): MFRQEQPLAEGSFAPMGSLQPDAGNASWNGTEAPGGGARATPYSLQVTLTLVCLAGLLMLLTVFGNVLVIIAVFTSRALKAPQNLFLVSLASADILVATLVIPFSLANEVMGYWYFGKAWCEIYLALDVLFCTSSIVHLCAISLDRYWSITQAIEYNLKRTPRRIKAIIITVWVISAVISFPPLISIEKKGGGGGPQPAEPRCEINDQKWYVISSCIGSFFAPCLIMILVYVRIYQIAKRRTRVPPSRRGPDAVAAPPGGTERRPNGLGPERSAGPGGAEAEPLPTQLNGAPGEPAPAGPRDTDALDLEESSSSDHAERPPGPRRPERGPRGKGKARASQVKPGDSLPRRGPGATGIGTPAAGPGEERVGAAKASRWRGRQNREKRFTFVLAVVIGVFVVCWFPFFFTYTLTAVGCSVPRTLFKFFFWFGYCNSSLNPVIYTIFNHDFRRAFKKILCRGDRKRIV
# 5HT-Transporter = target: T2, 5HT-Transporter (Homo sapiens, UniProt P31645); test: Binding experiment for the 5HT-transporter ([3H]paroxetine, human platelet membranes); settings: [3H]paroxetine 0.5 nM, read-out: h-5HTT pIC50 (converted)
# T2 construct: Human platelet membranes (Oceanix Biosciences Corporation, Hanover, Md., USA) were thawed; tissue Oceanix Biosciences Corporation, Hanover, Md., USA; host or cells: human platelet membranes
# T2 sequence (P31645 whole entry): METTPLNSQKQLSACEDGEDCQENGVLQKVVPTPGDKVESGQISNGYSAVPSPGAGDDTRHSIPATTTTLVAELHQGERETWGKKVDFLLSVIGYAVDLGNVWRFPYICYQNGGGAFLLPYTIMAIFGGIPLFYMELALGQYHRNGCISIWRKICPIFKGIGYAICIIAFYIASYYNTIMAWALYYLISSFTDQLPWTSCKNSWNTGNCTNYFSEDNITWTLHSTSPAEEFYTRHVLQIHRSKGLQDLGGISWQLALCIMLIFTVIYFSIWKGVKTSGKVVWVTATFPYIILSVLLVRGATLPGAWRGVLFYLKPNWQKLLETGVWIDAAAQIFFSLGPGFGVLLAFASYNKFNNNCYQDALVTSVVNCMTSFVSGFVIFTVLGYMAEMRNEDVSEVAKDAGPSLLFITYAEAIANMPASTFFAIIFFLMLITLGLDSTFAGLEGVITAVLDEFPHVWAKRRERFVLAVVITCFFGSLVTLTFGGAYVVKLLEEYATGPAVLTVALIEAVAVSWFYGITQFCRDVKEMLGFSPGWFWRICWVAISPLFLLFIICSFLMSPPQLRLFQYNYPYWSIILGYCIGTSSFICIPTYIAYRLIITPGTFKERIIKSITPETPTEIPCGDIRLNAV
# Method in brief: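 Competition binding of [3H]paroxetine to human platelet membranes in Tris-HCl 50 mM, 120 mM NaCl, 5 mM KCl, with filtration and scintillation counting.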
# hα2C receptor = target: T3, hα2C receptor (Homo sapiens, UniProt P18825); test: Radioligand binding experiment for α2C-adrenoceptor ([3H]raulwolscine, CHO cell membranes); settings: [3H]raulwolscine binding, read-out: h-α2C pIC50 (converted)
# T3 construct: expressed in transfected cells; host or cells: CHO cells, stably transfected; membrane preparation
# T3 sequence (P18825 1-462): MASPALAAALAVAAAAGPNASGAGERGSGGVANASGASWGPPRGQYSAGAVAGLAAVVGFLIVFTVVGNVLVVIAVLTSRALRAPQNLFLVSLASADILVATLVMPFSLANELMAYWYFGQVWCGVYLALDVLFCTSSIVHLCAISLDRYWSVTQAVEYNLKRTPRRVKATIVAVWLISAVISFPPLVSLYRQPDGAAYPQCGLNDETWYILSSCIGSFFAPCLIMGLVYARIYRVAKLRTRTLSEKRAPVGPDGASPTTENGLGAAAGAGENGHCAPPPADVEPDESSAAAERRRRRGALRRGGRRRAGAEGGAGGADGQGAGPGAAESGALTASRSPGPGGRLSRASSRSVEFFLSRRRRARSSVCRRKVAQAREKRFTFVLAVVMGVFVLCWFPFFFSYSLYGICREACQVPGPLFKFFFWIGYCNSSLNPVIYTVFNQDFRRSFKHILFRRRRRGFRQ
Compound,melting point [°C],IC50 (hα2A receptor) [nM],IC50 (5HT-Transporter) [nM],IC50 (hα2C receptor) [nM]
C/C(=C\c1ccccc1)CN1CCC(Nc2nccn(Cc3ccc(CN)cc3)c2=O)CC1 (as salt: HCl) [1-7],231,,,
C/C(=C\c1ccccc1)CN1CCC(Nc2nccn(CCCNCc3ccccc3)c2=O)CC1 (as salt: HCl) [1-47],270,,,
C/C(=C\c1ccccc1)CN1CCC(Nc2nccn(CCN3CCCCC3)c2=O)CC1 (as salt: HCl) [2-4],294,,,
C/C(=C\c1ccccc1)CN1CCC(Nc2nccn(CC#CCN3C(=O)c4ccccc4C3=O)c2=O)CC1 (as salt: trifluoroacetate) [2-54],67,,,
C/C(=C\c1ccccc1)CN1CCC(Nc2nccn(Cc3ccc(CN)cc3)c2=O)CC1 [1-6],286,12.6,398,2.51
C/C(=C\c1ccccc1)CN1CCC(Nc2nccn(CCCN(C)C)c2=O)CC1 [1-14],254,63.1,6310,
C/C(=C\c1ccccc1)CN1CCC(Nc2nccn(CC(=O)N(C)C)c2=O)CC1 [1-16],128,100,> 10000,15.8
CC(=O)CNCCCn1ccnc(NC2CCN(C/C(C)=C/c3ccccc3)CC2)c1=O [1-37],160,79.4,1260,3.98
C/C(=C\c1ccccc1)CN1CCC(Nc2nccn(-c3ccc(CN(C)CCN(C)C)cc3)c2=O)CC1 [1-110],115,20,501,2
C/C(=C\c1ccccc1)CN1CCC(Nc2nccn(Cc3ccc(CNC(=O)c4ccco4)cc3)c2=O)CC1 [1-152],103,126,501,31.6
C/C(=C\c1ccccc1)CN1CCC(Nc2nccn(Cc3ccc(CNS(=O)(=O)c4ccccc4)cc3)c2=O)CC1 [1-159],128,63.1,794,25.1
CC(=O)c1ccc(S(=O)(=O)NCc2ccc(Cn3ccnc(NC4CCN(C/C(C)=C/c5ccccc5)CC4)c3=O)cc2)cc1 [1-165],110,158,1000,25.1
C/C(=C\c1ccccc1)CN1CCC(Nc2nccn(CC(=O)N3CCCCC3)c2=O)CC1 [2-5],170,126,5010,6.31
C/C(=C\c1ccccc1)CN1CCC(Nc2nccn(Cc3ccc(OC(F)(F)F)cc3)c2=O)CC1 [3-15],99,251,1260,126

# The remaining lines, values ahead:
melting point [°C],IC50 (hα2A receptor) [nM],IC50 (5HT-Transporter) [nM],IC50 (hα2C receptor) [nM],Compound
112,158,398,15.8,C/C(=C\c1ccccc1)CN1CCC(Nc2nccn(Cc3ccccc3CS(=O)(=O)c3ccccc3)c2=O)CC1 [4-3]
123,126,631,31.6,C/C(=C\c1ccccc1)CN1CCC(Nc2nccn(Cc3ccc([N+](=O)[O-])cc3)c2=O)CC1 [5-25]
107,63.1,2000,31.6,C/C(=C\c1ccccc1)CN1CCC(Nc2nccn(Cc3cc(C)on3)c2=O)CC1 [6-3]
210,39.8,1000,6.31,C/C(=C\c1ccccc1)CN1CCC(Nc2nccn(-c3ccsc3)c2=O)CC1 [6-4]
126,31.6,2000,12.6,C=CCn1ccnc(NC2CCN(C/C(C)=C/c3ccccc3)CC2)c1=O [7-11]
,1000,> 10000,200,COC(=O)Cn1ccnc(NC2CCN(C/C=C/c3ccccc3)CC2)c1=O [16-10]
,794,631,158,CCOC(=O)CCCCn1ccnc(NC2CCN(C/C=C/c3ccccc3)CC2)c1=O [16-11]
,794,2510,316,CSCCn1ccnc(NC2CCN(C/C=C/c3ccccc3)CC2)c1=O [16-12]
,794,794,200,O=c1c(NC2CCN(C/C=C/c3ccccc3)CC2)nccn1CCc1ccccc1 [16-14]
,631,794,158,O=c1c(NC2CCN(C/C=C/c3ccccc3)CC2)nccn1Cc1ccccc1Br [16-15]
,501,1000,200,O=c1c(NC2CCN(C/C=C/c3ccccc3)CC2)nccn1Cc1cccc(Br)c1 [16-16]
,501,794,316,O=c1c(NC2CCN(C/C=C/c3ccccc3)CC2)nccn1Cc1ccc(Br)cc1 [16-17]
,251,398,251,O=c1c(NC2CCN(C/C=C/c3ccccc3)CC2)nccn1Cc1ccc2ccccc2c1 [16-18]
,1580,5010,316,O=c1c(NC2CCN(C/C=C/c3ccccc3)CC2)nccn1CC1CCCCO1 (stereo not drawn) [16-19]
,2000,> 10000,251,O=c1c(NC2CCN(C/C=C/c3ccccc3)CC2)nccn1Cc1ccncc1 [16-20]
,501,1000,126,O=c1c(NC2CCN(C/C=C/c3ccccc3)CC2)nccn1Cc1ccc2ccccc2n1 [16-21]
,631,1260,316,O=c1c(NC2CCN(C/C=C/c3ccccc3)CC2)nccn1CC1CCCCC1 [16-23]
,1000,> 10000,316,CC(=O)Cn1ccnc(NC2CCN(C/C=C/c3ccccc3)CC2)c1=O [16-24]
,1000,> 10000,158,CC(C)(C)C(=O)Cn1ccnc(NC2CCN(C/C=C/c3ccccc3)CC2)c1=O [16-25]
,1000,316,200,C/C(=C\c1ccccc1)CN1CCC(Nc2nc(Cl)c(-c3cccc(Br)c3)[nH]c2=O)CC1 [17-1]
,794,1580,501,COc1ccc(Cn2c(-c3cccc(Br)c3)c(Cl)nc(NC3CCN(C/C(C)=C/c4ccccc4)CC3)c2=O)cc1 [17-2]
